Patent publication US20260256724A1, “T[…] FOR […]” (Asklepion Pharmaceuticals LLC, priority 2022, published 2026)
“Also recorded” adds a separate entry of the source.

Assays:
[1] = tested on: nitric oxide production; assay: Nitric oxide production in a murine system, measured via NO metabolites; conditions: increasing citrulline concentration
From the text: It is important to recall that citrulline is regenerated in the last step of NO production, making negative feedback by citrulline a reasonable hypothesis. Alternatively, an acute increase in NO production, which is known to have a negative feedback effect on NOS (Viziri and Wang, 1999) could explain the results. […] The negative clinical effects in the >95% group for the Phase 3 trial may thus result from one or more negative feedback mechanisms. The negative feedback could result from either the effect of NO or the citrulline itself creating feedback on the system.

[2] = tested on: pediatric patients undergoing surgical procedures involving cardiopulmonary bypass; conditions: 22 patients (11 Tx, 11 PL); Dose 2 100 μmol; cited from earlier work
[3] = tested on: pediatric patients exposed to cardiopulmonary bypass in congenital heart defect surgery; assay: Phase 3 double-blind, placebo-controlled trial of citrulline in cardiopulmonary bypass surgery, re-analysed by percent of intraoperative Dose 2 received; format: in vivo
Method: A Phase 3 study was carried out as a double-blind, placebo-controlled trial to confirm the effect. The Phase 3 trial was performed in the US, EU, and Israel, using a modified intent-to-treat population (or modified full analysis set) of 190 patients, of whom 138 were in the US and 52 were ex-US.
The starting point for the analysis was consideration of the complete modified full analysis set, consisting of all enrolled patients who completed the protocol. […] The Modified Full Analysis Set consists of all enrolled patients who completed the protocol.
In the study protocol and accompanying pharmacy manual for both studies, citrulline dosing occurs in four distinct phases. Dose 1 is a loading dose added to the cardiopulmonary […] bypass fluids on a mg/kg basis. Dose 3 is a bolus administered following surgery on a mg/kg basis, and Dose 4 is an IV drip at 9 mg/kg/hour. No variation in administration of these doses was introduced during the course of the phase 3 study.
In contrast, Dose 2, the intraoperative dosing designed to compensate for ultrafiltration, was subject to some variation. Ultrafiltration during cardiac surgery is not standardized, and therefore, it was not possible to completely standardize this dose. The perfusionist estimates the volume of ultrafiltrate removed, as well as the volume of cardioplegia solution. The perfusionist then calculates according to the study pharmacy manual instructions the amount of citrulline to be administered to compensate for the ultrafiltered citrulline in order to maintain a specified therapeutic level.
Although the therapeutic target level was set at 100 micromolar during the phase 2 study, because of the potential for variation in Dose 2 (which is given intraoperatively to compensate for the routine ongoing ultrafiltration of circulating bypass fluids to reduce the circulating concentrations of inflammatory mediators) and the concern that some patients might inadvertently receive sub-therapeutic intraoperative levels, the target level for Dose 2 in the phase 3 study was increased to 200 micromolar. This was considered to be safe since no adverse effects of citrulline had been reported, even at substantially higher levels in medical use. In order to examine whether variation in Dose 2 could explain the results obtained, the actual dose received, shown as the percent of the targeted dose, was plotted against the composite variable results. Since placebos received no citrulline, they were plotted at the 0% level.
For the Phase 3 trial, a target intraoperative dose of […] (Dose 2) was chosen to preclude an inadvertent drop below an efficacious level in any patient. The potential for variation in intraoperative dosing arises from the lack of standardization of cardiopulmonary bypass ultrafiltration techniques. […] Nonetheless, expansion of the study to a greater number of sites raised the concern that some sites might inadvertently underdose Dose 2. Given the known innocuous nature of L-citrulline, an endogenous amino acid that is given medicinally in doses an order of magnitude higher than this to urea cycle disorder patients, as well as the well-tolerated high endogenous concentrations of citrulline in hypercitrullinemia patients, there was no concern for erring on the high side of the presumed effective dose.
To investigate the data in more detail, patients were stratified according to the dose level actually administered intraoperatively. The values obtained for duration of mechanical ventilation (MV), length of inotrope therapy (InoTx) and the composite primary (created for the SAP, based on the longer of the MV or InoTx) in any patient were segmented into groups based on the percent of the 200 μmol target dose actually received by the patient, by comparing patients who had received <65%, <75%, <85%, <95%, and >95% of the calculated target dose. […] Analysis was performed via two-sided Wilcoxon Rank Sum. […]

SMILES: NC(=O)NCCC[C@H](N)C(=O)O [citrulline, L-citrulline]
- production of NO as measured via NO metabolites [1]: increasing levels of citrulline initially facilitate nitric oxide production; however, continued increase in citrulline concentration results in diminished production of NO
- primary parameters (duration of MV & InoTx) vs placebo [2]: near-significance
- Composite (longer of MV or InoTx), median ([3]; <65% of target Dose 2, p = 0.0040): 1267.0 min
- PICU/NICU stay, median ([3]; <65% of target Dose 2, p = 0.0236): 2 days
- Hospitalization, median ([3]; <65% of target Dose 2, p = 0.0953): 4 days
- Reduction of median Composite vs placebo ([3]; <75% of target Dose 2): 42%
- Reduction of median Inotrope vs placebo ([3]; <75% of target Dose 2): 26%
- Reduction of median Mechanical Ventilation vs placebo ([3]; <75% of target Dose 2): 70%
- Composite (longer of MV or InoTx), median ([3]; <75% of target Dose 2, p = 0.0025): 1267.0 min
- Vent (duration of mechanical ventilation), median ([3]; <75% of target Dose 2, p = 0.0129): 170.0 min
- PICU/NICU stay, median ([3]; <75% of target Dose 2, p = 0.0295): 2 days
- Hospitalization, median ([3]; <75% of target Dose 2, p = 0.1905): 5 days
- overall length of hospital stay vs placebo ([3]; <75% of the calculated Dose 2): not significantly different
- Composite (longer of MV or InoTx), median ([3]; <85% of target Dose 2, p = 0.0029): 1283.5 min
- PICU/NICU stay, median ([3]; <85% of target Dose 2, p = 0.0332): 2 days
- Hospitalization, median ([3]; <85% of target Dose 2, p = 0.1369): 5 days
- Composite (longer of MV or InoTx), median ([3]; <95% of target Dose 2, p = 0.0033): 1357.0 min
- Inotrope (duration of inotrope therapy), median ([3]; <95% of target Dose 2, p = 0.0242): 1300.0 min
- PICU/NICU stay, median ([3]; <95% of target Dose 2, p = 0.1232): 2 days
- Hospitalization, median ([3]; <95% of target Dose 2, p = 0.3169): 5 days
- Hospitalization, median ([3]; >95% of target Dose 2, p = 0.0006): 7 days
- PICU/NICU stay, median ([3]; >95% of target Dose 2, p = 0.0034): 4 days
- Composite (longer of MV or InoTx), median ([3]; >95% of target Dose 2, p = 0.0114): 3447.0 min
- composite variable, duration of mechanical ventilation and duration of inotrope therapy vs placebo ([3]; >95% of the targeted dose (>190 μmol)): worse results when treated with citrulline than placebo patients
- Composite (longer of MV or InoTx), median ([3]; All Patients, p = 0.3398 vs placebo (placebo median 2204.0)): 1640.0 min
- Hospitalization, median ([3]; All Patients, p = 0.3681 vs placebo (placebo median 5)): 5 days
- PICU/NICU stay, median ([3]; All Patients, p = 0.8484 vs placebo (placebo median 3)): 3 days
- reduction in the length of stay in the PICU or NICU following surgery ([3]; Dose 2 at levels <95% of target): statistically significant reduction of one day
- composite variable, duration of mechanical ventilation and duration of inotrope therapy vs placebo ([3]; Dose 2 at levels <95% of target, two-sided Wilcoxon Rank Sum): Statistically significant reduction of all variables; also recorded: highly significant reductions
- composite endpoint, treated vs placebo ([3]; complete modified full analysis set): showed no difference
